Data reported in ChEMBL document CHEMBL4814058, “Light-inducible control of cellular proliferation and differentiation by a Hedgehog signaling inhibitor” (Bioorg Med Chem, 2021).
Calls of active or inactive are those of the source. No cut-off for these calls is given here.

Tests used:
NIH/3T3 [1] = assay: Inhibition of hedgehog signalling in mouse NIH/3T3 cells assessed as reduction in Shh mRNA expression at 0.1 to 10 uM measured after 6 hrs by RT-PCR analysis; format: cell-based; conditions: dose 0.1-10 µM
NIH/3T3 [2] = assay: Inhibition of SAG-induced hedgehog signalling in mouse NIH/3T3 cells assessed as reduction in Ptc mRNA expression at 0.1 to 10 uM measured after 6 hrs by RT-PCR analysis; format: cell-based; conditions: dose 0.1-10 µM
NIH/3T3 [3] = assay: Inhibition of hedgehog signalling in mouse NIH/3T3 cells assessed as reduction in Ptc mRNA expression at 0.1 to 10 uM measured after 6 hrs by RT-PCR analysis; format: cell-based; conditions: dose 0.1-10 µM
NIH/3T3 [4] = assay: Inhibition of SAG-induced hedgehog signalling in mouse NIH/3T3 cells assessed as reduction in Shh mRNA expression at 0.1 to 10 uM measured after 6 hrs by RT-PCR analysis; format: cell-based; conditions: dose 0.1-10 µM
NIH/3T3 [5] = assay: Inhibition of hedgehog signalling in mouse NIH/3T3 cells assessed as reduction in Gli1 mRNA expression at 0.1 to 10 uM measured after 6 hrs by RT-PCR analysis; format: cell-based; conditions: dose 0.1-10 µM
NIH/3T3 [6] = assay: Inhibition of SAG-induced hedgehog signalling in mouse NIH/3T3 cells assessed as reduction in Gli1 mRNA expression at 0.1 to 10 uM measured after 6 hrs by RT-PCR analysis; format: cell-based; conditions: dose 0.1-10 µM
[7] = Effect on differentiation of ICR mouse cerebellar granule neuron assessed as effect on Ki67-positive cells with low neurites at 100 nM incubated for 48 hrs by TUBB3 staining based immunofluorescence assay; format: tissue-based; conditions: cerebellar granule neurone, 0.1 µM
[8] = Effect on differentiation of ICR mouse cerebellar granule neuron assessed as effect on neurite length of Ki67-positive cells at 100 nM incubated for 48 hrs by TUBB3 staining based immunofluorescence assay; format: tissue-based; conditions: cerebellar granule neurone, 0.1 µM
NIH3T3 [9] = assay: Cytotoxicity against mouse NIH/3T3 cells assessed as reduction in cell viability at 1 to 10 uM incubated for 6 hrs by MTT assay; format: cell-based; conditions: nih3t3, 6 h, dose 1-10 µM
[10] = tested on: Cerebellar granule neurone; assay: Antiproliferative activity against ICR mouse cerebellar granule neurons assessed as reduction in Ki67 expression at 100 nM irradiated with 4 J/cm2 light followed by incubation with compound for 48 hrs by immunostaining analysis; format: functional, tissue-based
[11] = Effect on differentiation of ICR mouse cerebellar granule neuron assessed as effect on Ki67-negative cells with neurite outgrowth at 100 nM incubated for 48 hrs by TUBB3 staining based immunofluorescence assay; format: tissue-based; conditions: cerebellar granule neurone, 0.1 µM
NIH3T3 [12] = assay: Cytotoxicity against mouse NIH/3T3 cells assessed as reduction in cell viability at 1 to 10 uM irradiated with 4 J/cm2 light followed by compound exposure and measured after 6 hrs by MTT assay; format: cell-based; conditions: nih3t3, 6 h, dose 1-10 µM
[13] = Effect on differentiation of ICR mouse cerebellar granule neuron assessed as effect on neurite length of Ki67-negative cells at 100 nM incubated for 48 hrs by TUBB3 staining based immunofluorescence assay; format: tissue-based; conditions: cerebellar granule neurone, 0.1 µM
NIH/3T3 [14] = assay: Inhibition of SAG-induced hedgehog signalling in mouse NIH/3T3 cells assessed as reduction in Gli1 mRNA expression at > 1 uM measured after 6 hrs by RT-PCR analysis; format: cell-based; conditions: dose microM >1, time 6.0 hrs
[15] = Effect on differentiation of ICR mouse cerebellar granule neuron assessed as effect on Ki67-negative cells with neurite outgrowth at 100 nM irradiated with 4 J/cm2 light followed by incubation with compound for 48 hrs by TUBB3 staining based immunofluorescence assay; format: tissue-based; conditions: cerebellar granule neurone, 0.1 µM
[16] = Effect on differentiation of ICR mouse cerebellar granule neuron assessed as effect on neurite length of Ki67-positive cells at 100 nM irradiated with 4 J/cm2 light followed by incubation with compound for 48 hrs by TUBB3 staining based immunofluorescence assay; format: tissue-based; conditions: cerebellar granule neurone, 0.1 µM
[17] = Effect on differentiation of ICR mouse cerebellar granule neuron assessed as effect on neurite length of Ki67-negative cells at 100 nM irradiated with 4 J/cm2 light followed by incubation with compound for 48 hrs by TUBB3 staining based immunofluorescence assay; format: tissue-based; conditions: cerebellar granule neurone, 0.1 µM
NIH/3T3 [18] = assay: Inhibition of SAG-induced hedgehog signalling in mouse NIH/3T3 cells assessed as reduction in Gli1 mRNA expression at 1 uM irradiated with 4 J/cm2 light followed by compound exposure and measured after 6 hrs by RT-PCR analysis; format: cell-based
NIH/3T3 [19] = assay: Inhibition of hedgehog signalling in mouse NIH/3T3 cells assessed as reduction in Gli1 mRNA expression at 1 uM measured after 6 hrs by RT-PCR analysis; format: cell-based
[20] = Effect on differentiation of ICR mouse cerebellar granule neuron assessed as effect on Ki67-positive cells with low neurites at 100 nM irradiated with 4 J/cm2 light followed by incubation with compound for 48 hrs by TUBB3 staining based immunofluorescence assay; format: tissue-based; conditions: cerebellar granule neurone, 0.1 µM
[21] = Photostability of compound assessed as drug degradation at 1 mM irradiated with 2 J/cm2 light by HPLC/MS analysis; format: physicochemical; conditions: read-out: Drug degradation
[22] = Photostability of compound assessed as drug degradation at 1 mM irradiated with 8 J/cm2 light by HPLC/MS analysis; format: physicochemical; conditions: read-out: Drug degradation
[23] = tested on: Cerebellar granule neurone; assay: Antiproliferative activity against ICR mouse cerebellar granule neurons assessed as reduction in Ki67 expression at 100 nM incubated for 48 hrs by immunostaining analysis; format: functional, tissue-based

| SMILES | inhibition (NIH/3T3 [1]) | inhibition (NIH/3T3 [2]) | inhibition (NIH/3T3 [3]) | inhibition (NIH/3T3 [4]) | inhibition (NIH/3T3 [5]) | inhibition (NIH/3T3 [6]) | Activity [7] | Activity [8] | Activity (NIH3T3 [9]) | Activity [10] | Activity [11] | Activity (NIH3T3 [12]) | Activity [13] | other results |
| --- | --- | --- | --- | --- | --- | --- | --- | --- | --- | --- | --- | --- | --- | --- |
| CC1=C2C[C@H]3[C@@H](CC=C4C[C@@H](O)CC[C@@]43C)[C@@H]2CC[C@]12O[C@@H]1C[C@H](C)CN[C@H]1[C@H]2C | inactive | Active | inactive | inactive | inactive | Active |  |  |  |  |  |  |  |  |
| CCCN[C@H]1CC[C@H](N(Cc2cccc(-c3ccncc3)c2)C(=O)c2sc3ccccc3c2Cl)CC1 | inactive | Active | inactive | inactive | inactive | Active | Non-Toxic | Non-Toxic | Non-Toxic | Active | Non-Toxic | Non-Toxic | Non-Toxic | inhibition (NIH/3T3 [14]): Active |
| CCCN(C(=O)OC(C)c1cc(OC)c(OCCCC(=O)O)cc1[N+](=O)[O-])[C@H]1CC[C@H](N(Cc2cccc(-c3ccncc3)c2)C(=O)c2sc3ccccc3c2Cl)CC1 (stereo partly specified) |  |  |  |  |  |  | Non-Toxic | Non-Toxic | Non-Toxic | Active | Non-Toxic | Non-Toxic | Non-Toxic | Activity [15]: Non-Toxic; Activity [16]: Non-Toxic; Activity [17]: Non-Toxic; inhibition (NIH/3T3 [18]): Active; inhibition (NIH/3T3 [19]): inactive; Activity [20]: Non-Toxic; degraded at 1000 µM [21]: 90%; degraded at 1000 µM [22]: 100%; Activity [23]: inactive |
